Test results from patent US8268961B2, “Antibacterial peptides and analogues thereof” (Universita Degli Studi di Siena, priority 2004, dated 2012).
Where two headings read alike, the source gives them in different places. Positions of bridges follow the written chain, without caps; N, C: chain ends. Chains are numbered I, II in the order given. No end group written: not given here.

Legend:
[1] = test system: Escherichia coli W99FI0077; type: cell-based; settings: W99FI0077
Source text: (§1) MIC is defined as the lowest concentration, in an antibiotic dilution range, that inhibits visible bacterial growth. The importance of MIC sensitivity test is based on the principle that in vitro sensitivity provides a predictive indication of the in vivo efficacy of the antibiotic therapy. Values are expressed as molar concentration and compared to MIC values obtained with commercially available antibiotics such as amikacin, ceftriaxone and levofloxacin (Table 3).
(§2) Reference strains (Escherichia coli ATCC 25922, Pseudomonas aeruginosa ATCC 27853, Staphylococus aureus ATCC 25923 and Chryseobacterium meningosepticum CCUG 4310) and several recent clinical isolates (including multidrug-resistant ones) of various species (Table 2) were used for conventional susceptibility testing experiments. Minimum Inhibitory Concentration (MIC) was determined by a standard microdilution assay as recommended by the National Commitee for Clinical Laboratory Standards (NCCLS) using cation-supplemented Mueller-Hinton (MH) broth (Oxoid Ltd. Basingstoke, UK) and a bacterial inoculum of 5×10^4 CFU per well, in a final volume of 100 μl. Results were recorded by visual inspection after 24 h of incubation at 37° C.

[2] = test system: Staphylococcus aureus ATCC 25923; type: cell-based
Source text: as §1, §2

[3] = test system: Pseudomonas aeruginosa 891; type: cell-based; settings: 891
Source text: as §1, §2

[4] = test system: Klebsiella pneumoniae W99FI0057; type: cell-based; settings: W99FI0057
Source text: as §1, §2

[5] = test system: Pseudomonas aeruginosa 885149; type: cell-based; settings: 885149
Source text: as §1, §2

[6] = test system: Pseudomonas aeruginosa ATCC27853; type: cell-based; settings: ATCC27853
Source text: as §1, §2

[7] = test system: Staphylococus aureus MIU-68A; type: cell-based, Staphylococcus aureus; settings: Staphylococus aureus MIU-68A, meticillin-susceptible
Source text: as §1, §2

[8] = test system: Pichia pastoris yeast strain X33; assay: Effect on Pichia pastoris yeast colonies; type: cell-based
Method: To a volume of 50 μl of culture of Pichia pastoris grown 24 hour at 30° C. in YPD (Yeast Extract/Peptone/Dextrose) medium, 50 μl of MAP peptides (2 mg/ml) were added and left in incubation 150 min at 37° C. Subsequently, 50 μl of each incubation were plated on YPD solid medium and it was allowed to grow for 48 hours at 30° C. The number of colonies grown was compared with a control, where the yeast was not treated with the MAP.

[9] = Stability to plasmatic protease (HPLC); type: in vitro ADME, human
Method: Since the use of peptides as therapeutic agents is severely limited by their in vivo half-life, the stability to human serum protease of the linear peptide L1 and of the MAP peptides M1, M4, M5 and M6 was evaluated. The peptides were incubated at the concentration of 10 mM with plasma and with human serum for 2 and 24 hours; the samples were subsequently analysed in HPLC on column C18 (see materials and methods) to evaluate the presence of linear and MAP peptide not digested by the protease.
The various peptides in MAP form and the linear peptide (L1) were dissolved in H2O at the concentration of 10 mM and incubated with 10 μl of plasma and human serum for 2 and 24 hours at 37° C. To each sample were added 150 μl of methanol to block the proteolytic reaction; each sample was then centrifuged at 13,000 rpm for 2 min and to the supernatant were added 0.75 ml of 0.1% trifluoroacetic acid. The samples were analysed in reverse phase HPLC on a Vydac C18 semi-preparative column using a 30 min gradient of buffer B from 20% to 95% (buffer A: 0.1% trifluoroacetic acid/water; buffer B: 0.1% trifluoroacetic acid/methanol), to evaluate the presence of linear and MAP peptide after the proteolytic treatment.

E. coli strain TG1 = assay: Test of antibacterial activity (colony growth inhibition) on E. coli strain TG1; type: cell-based
Method: The antimicrobic activity of the peptides in linear form (L1, L4, L5, L6) and in MAP form (M1, M4, M5, M6) was assayed on the TG1 strain of E. coli. The peptides were incubated at various concentrations (2-1-0.5-0.25-0.12 mg/ml) with cells of E. coli (OD600=0.2) for about 1 hour at 37° C. Subsequently, the cells were plated on agar at dilution such to allow counting of individual colonies. The antimicrobic activity of the synthesised peptide L 1 and M1 is shown FIG. 1 and is compared to a non correlated MAP peptide (MNC) used as negative control.
In one example, the tetrabranched MAP peptides with the amino acid sequence: QAKIRVRLSA [SEQ ID NO: 2], KIRVRLSA [SEQ ID NO: 3], QKKIRVRLSA [SEQ ID NO: 4] are used individually in a bacterial colony growth inhibition test. The test is conducted by incubating different concentrations of MAP peptides with E. coli (strain TG1) and plating bacterial cells on agar at a dilution such to allow for individual colonies counting. The following day, the number of colonies grown after treatment with the three MAP peptides is compared.
Antimicrobic tests were conducted incubating for 75 min at 37° C., 25 μL of E. coli at the OD600 of 0.2 with 25 μl of MAP peptide dissolved in PBS at the various concentrations. The different incubations were further diluted 1:1000 in 2×TY medium and 100 μl were plated on solid 2×TY medium. The plates were left overnight at 30° C. and the individual grown colonies were counted and compared with a control, not treated with MAP peptide.

E. coli ATCC 25922 = assay: Minimal bactericidal concentration (MBC); type: cell-based
Method: as §2
(§3) The MBC was determined as recommended by the National Committee for Clinical Laboratory Standards (NCCLS) on strains of E. coli ATCC 25922 and P. aeruginosa ATCC 27853.

P. aeruginosa ATCC 27853 = assay: Minimal bactericidal concentration (MBC); type: cell-based
Method: as §2, §3

[10] = test system: murine macrophage cells J774 A.1; assay: Cytotoxicity test by MTT; type: cell-based, mouse
Method: The cytotoxicity of antibacterial MAP peptides was evaluated on different eukaryotic cell lines by a colorimetric assay (MTT). This assay measures the cells' ability to convert a soluble tetrazolium salt into an insoluble precipitate: formazan. The cytotoxicity of M1 was evaluated on murine macrophagic cells (J774 A.1), murine myeloma cells (SPO) and Chinese hamster ovary epithelium cells (CHO K1). As shown FIG. 4, even at high concentrations (1 mg/ml) M1 cytotoxicity on CHO K1 cells and on SPO cells is low (percent survival is 80-90%).
For cytotoxicity tests, different cell lines were used: murine myeloma cells SPO, hamster ovary epithelium cells CHO K 1, murine macrophage cells J774 A.1 and human keratinocytes HaCaT. The cells were plated in medium in RPMI 1640 (SPO and CHO K 1) and DMEM (J774 A.1 and HaCaT) with antibiotics and bovine foetal serum at 10%, in 96-well plates at the concentration of 6×10^4 (SPO, CHO K1 and J774 A.1) and 3×10^4 (HaCaT). Peptides, previously filtered with a 0.2 μm filter disk (Whatman), were added at various concentrations to the different cell lines and left in incubation over night at 37° C. Cell viability was determined adding the MTT tetrazolium salt at the concentration of 0.5 mg/ml and incubating for 90 min. The cells were solubilised with a solution at pH 4.5 containing SDS 10% and dimethylformamide 45% and read at the dual wavelength of 595/650 nm with a plate reader.

I: QAKIRVRLSAKKA-OH / II: QAKIRVRLSAK / III: QAKIRVRLSA / IV: QAKIRVRLSA (amide I:11-IV:C, I:12-II:C, II:11-III:C) [M4]
MIC (Molarity) [1]: 3.2 µM
MIC (Molarity) ([2]; ATCC 25923): 1.3e-05 M
MIC (Molarity) ([2]; Staphylococcus aureus ATCC 25923, reference strain, listed as M32 = M4): >1.2e-05 M
MIC (Molarity) ([2]; Staphylococcus aureus ATCC 25923, reference strain, listed as QAKIRVRLSA): ~10^−5 M
MIC (Molarity) [3]: 13 µM
MIC (Molarity) [4]: 13 µM
MIC (Molarity) [5]: 13 µM
MIC (Molarity) [6]: 6.4 µM
MIC (Molarity) [7]: >26 µM
Number of yeast colonies vs negative control [8]: did not differ from the negative control
Resistance to plasmatic protease: Plasma 2 h [9]: +
Resistance to plasmatic protease: Plasma 24 h [9]: +
Concentration down to which TG1 E. coli colony growth is prevented (E. coli strain TG1; E. coli TG1, MAP form): less effective
Antibacterial activity on E. coli TG1 colony growth (E. coli strain TG1; E. coli TG1, colony counting vs control without peptide): good antibacterial activity
MBC (minimal concentration able to kill 99.9% of the inoculum) compared with MIC (E. coli ATCC 25922): equal to the calculated values of MIC
MBC (minimal concentration able to kill 99.9% of the inoculum) compared with MIC (E. coli ATCC 25922; listed as QAKIRVRLSA): equal to the corresponding MIC values
MBC (minimal concentration able to kill 99.9% of the inoculum) compared with MIC (P. aeruginosa ATCC 27853): equal to the calculated values of MIC
MBC (minimal concentration able to kill 99.9% of the inoculum) compared with MIC (P. aeruginosa ATCC 27853; listed as QAKIRVRLSA): equal to the corresponding MIC values
Concentration at and over which a drop in cell viability was evident (MTT) [10]: ≥ 250 µg/mL
Vitality of J774 A.1 cells as the concentration of MAP peptides increases (MTT) [10]: decreases
